Experiments:
[1] = system: HMEC cells adhesion to Vitronectin; experiment: Adhesion assay on vitronectin, HMEC cells; format: cell-based
Method: (§1) Ninety-six-well plates (Falcon) were coated with either fibronectin or vitronectin (both at […] in phosphate buffered saline) overnight at 4° C. Cells were detached using EDTA (1 mM)/trypsine (0.25%) and resuspended in own medium described above. Approximately 40,000 cells/[…] were applied for each well and allowed to adhere for 60 min at 37° C. in presence of different amounts of RGD peptides. For all experiments the non-adherent cells were removed with PBS and the remaining cells were fixed with 4% paraformaldehyde for 10 min.
(§2) Cells were stained with 1% toluidine blue for 10 min and rinsed with water.
(§3) Stained cells were solubilized with 1% SDS and quantified on a microtiter plate reader at 600 nm.
Experiments described were performed in quadruplicate and repeated a minimum of three times.
To asses the ability of ST1646 peptide to compete with vitronectin in adhesion assay also on other cells type, we performed this experiment using microvascular endothelial cells (HMEC), human prostate carcinoma cells (PC3) and murine lung carcinoma cells (M109). Table 6 (a, b and c) show a good activity of the ST1646 peptide in inhibiting adhesion of all cells type. […]
(§4) The percentages of adhesion inhibition refer to 1.5 μM concentration of each peptide and were calculated by the following formula (control-sample/control×100) where control was RGD untreated sample.

[2] = system: human prostate carcinoma cells (PC3) adhesion to Vitronectin; experiment: Adhesion assay on vitronectin, PC3 cells; format: cell-based
Method: Human prostate carcinoma cells (PC3) were purchased from American Type Collection Culture (ATCC) and maintained in RPMI supplemented with 10% foetal calf serum, 10 mM L-glutamine, 1% sodium piruvate and 100 units/ml gentamicin.
as §1, §2, §3
(§5) Experiments described were performed in quadruplicate and repeated a minimum of three times. […]
as §4

M109 lung carcinoma = experiment: Antitumor and antimetastatic activity on M109 lung carcinoma-bearing Balb/c mice; format: in vivo; details: 200 μg/mouse (10 mg/kg) i.p. qdx9; lung metastases at day 16; untreated group 34
Method: Balb/c mice were injected i.m. with M109 lung carcinoma cells (3×10^5 cells/mouse) into the hind leg muscle.
Tumors were excised at day 10th after tumor implant. Mice were sacrificed at day 16th from tumor implant and lungs were removed. The number of lung metastases has been evaluated on tumor-excised mice (3 mice/group) using a dissecting microscope.
TVI % (tumor volume inhibition)=100−[(mean tumor weight of treated group/mean tumor weight of control group)×100]. Calculated on day 16th after tumor implant (just before mice sacrifice) on nonoperated mice.

[3] = system: bovine microvascular endothelial cells (BMEC) adhesion to Vitronectin; experiment: Adhesion inhibition of BMEC to vitronectin; format: cell-based
Method: (§6) Bovine microvascular endothelial cells (BMEC) were maintained in DMEM supplemented with 20% foetal calf serum, 50 units/ml heparin, 50 μg/ml bovine brain extract, 100 units/ml gentamycin.
(§7) BMEC were cultured on 1% gelatine-coated culture flasks and employed in experiments between passage 6-12.
as §1, §2, §3, §5
The percentages of adhesion inhibition refer to 100 µM concentration of each peptide of and it's calculated by the following formula (control-sample/control×100) where control was RGD untreated sample. […] The t-test has been calculated, using the Mann Witney non parametric test, by the instat program. […]

[4] = system: murine lung carcinoma cells (M109) adhesion to Vitronectin; experiment: Adhesion assay on vitronectin, M109 cells; format: cell-based
Method: Murine lung carcinoma cells (M109) were purchased from American Type Collection Culture (ATCC) and maintained in RPMI supplemented with 10% foetal calf serum, 10 mM L-glutamine and 100 units/ ml gentamicin.
as §1, §2, §3, §5, §4
The t-test has been calculated using the Mann Witney non parametric test, by the instat program. […]

[5] = system: bovine microvascular endothelial cells (BMEC) adhesion to Fibronectin; experiment: Adhesion inhibition of BMEC to fibronectin; format: cell-based
Method: as §6, §7, §1, §2, §3, §5
The percentages of adhesion inhibition refer to 100 μM concentration of each peptide of and it's calculated by the following formula (control-sample/control×100) where control was RGD untreated sample. […] The t-test has been calculated, using the Mann Witney non parametric test, by the instat program. […]

## CC(C)[C@@H]1NC(=O)[C@@H](Cc2ccccc2)NC(=O)[C@H](CC(=O)O)NC(=O)CNC(=O)[C@H](CCCNC(=N)N)NC1=O [KESSLER, cyclo (Arg-Gly-Asp-D-Phe-Val)]
[1]; 1.5 μM peptide
  % Inhibition: 39%
[1]; average of 3 experiments
  IC50: 4.23 ± 0.31 µM
[2]; 1.5 μM peptide
  % Inhibition: 69%
[2]; average of 3 experiments
  IC50: 2.5 ± 0.2 µM
M109 lung carcinoma
  Mean no. of metastases: 23
[3]; BMEC on vitronectin, 100 µM concentration of each peptide, mean of 4 samples
  % Inhibition: 96%
[3]; BMEC, vitronectin-coated plates, 100 to 0.6 μM tested, ± SD
  IC50: 7.8 ± 1.2 µM
[4]; 1.5 μM peptide
  % Inhibition: 70%
[4]; average of 3 experiments
  IC50: 0.46 ± 0.5 µM
[5]; BMEC on fibronectin, 100 μM concentration of each peptide, mean of 4 samples
  % Inhibition: 30%
[5]; BMEC, fibronectin-coated plates, 100 to 0.6 μM tested, ± SD
  IC50: > 100 µM

— patent US6451972B1, “Peptido-mimetic compounds containing RGD sequence useful as integrin inhibitors” (Sigma-Tau Industrie Farmaceutiche Riunite S.p.A., priority 1998, dated 2002)
